Two compounds from patent publication US20210379079A1, “COMPOSITIONS COMPRISING CD20 INHIBITORS AND BISFLUOROALKYL-1,4-BENZODIAZEPINONE COMPOUNDS AND METHODS OF USE THEREOF” (Ayala Pharmaceuticals Inc., priority 2018, published 2021) can be followed below.

Structures are written as SMILES.

Holding throughout (assay): Cell surface CD20 levels by flow cytometry (FACS) after GSI treatment
Holding throughout (type): cell-based
In general terms: Flow cytometry measures light scatter and fluorescence of single cells or particles in a stream.

The test system of experiment [1] is SUDHL-4 cells. The settings on record: SUDHL-4 (DLBCL); for CD20 levels: separate experiment, 0.001-10 μM, 7 days at 37° C., FIG. 2. How it is done:
(§1) The effect of γ-secretase inhibitors (GSIs) on levels of CD20 in lymphoma cell lines was examined (FIG. 1). Cells from five different lymphoma cell lines (SP49 (mantle cell lymphoma (MCL) with Notch4 GOF); Toledo (Diffuse large B-cell lymphoma (DLBCL)); RC (Double Hit DLBCL-MYC, BCL2); SUDHL-4 (DLBCL); and SUDHL-6 (DLBCL)) were treated for 7 days with 0, 1 nM, 10 nM, 100 nM, 500 nM, 1000 nM, and 10000 nM of the following GSIs: Compound 1 (FIG. 1A) or Compound 22 (FIG. 1B). Cell surface CD20 levels were observed by flow cytometry (FACS analysis).
(§2) In a separate experiment, cells from lymphoma cell lines SUDHL-4 (DLBCL); Rec-1 (MCL); and SP49 (MCL) were seeded at 1×10^4 cells/well in a total volume of 250 μl into a 96-well plate. The cells were cultured in RPMI supplemented with 10% FCS.
(§3) Compound 1 or Compound 22 were added to the cell cultures at concentrations of 10, 1, 0.5, 0.1, 0.01, 0.001 μM. Following 7 days of incubation at 37° C., the cells were collected and stained with anti CD20 antibody and cell surface CD20 levels were immediately analyzed by flow cytometry (FACS analysis).

For experiment [2], the system named is SP49 cells. The note with it: for cell surface CD20 levels: SP49 (MCL with Notch4 GOF), 7 days, 0-10000 nM, FIGS. 1A-1B. How it is done:
as §1, §2, §3

The test system of experiment [3] is Rec-1 (MCL). The settings on record: separate experiment, 0.001-10 μM, 7 days at 37° C., FIG. 2. As for the experimental part: as §2, §3

Consider `CN1C(=O)[C@@H](NC(=O)[C@H](CCC(F)(F)F)[C@H](CCC(F)(F)F)C(N)=O)N=C(c2ccccc2)c2ccccc21` [Compound 1, (2R,3S)-N-((3S)-1-methyl-2-oxo-5-phenyl-2,3-dihydro-1H-1,4-benzodiazepin-3-yl)-2,3-bis(3,3,3-trifluoropropyl)succinamide], for which the “cell surface CD20 levels” value in experiment [1] (7 days, 0-10000 nM, FIG. 1A) was “increased cell surface CD20 levels”; in experiment [2], “increased cell surface CD20 levels”. The CD20 levels entry in experiment [1] was “dose-dependent increase in CD20 levels”; in experiment [2] (separate experiment, SP49 (MCL), 0.001-10 μM, 7 days at 37° C., FIG. 2), “dose-dependent increase in CD20 levels”; in experiment [3], “dose-dependent increase in CD20 levels”.

With `Cc1cccc2c1NC(=O)[C@@H](NC(=O)[C@H](CCC(F)(F)F)[C@H](CCC(F)(F)F)C(N)=O)N=C2c1cccc(F)c1` [Compound 22, (2R,3S)-N-((3S)-5-(3-fluorophenyl)-9-methyl-2-oxo-2,3-dihydro-1H-1,4-benzodiazepin-3-yl)-2,3-bis(3,3,3-trifluoropropyl)succinamide], the CD20 levels result in experiment [1] and in experiment [3] was “dose-dependent increase in CD20 levels” each time. For the same compound, the “cell surface CD20 levels” value in experiment [2] was “increased cell surface CD20 levels”.
